From PubChem BioAssay AID1671282

Target: Tyrosine-protein kinase Fyn (Homo sapiens) (UniProt P06241)
Assay: FYN kinase inhibition, dose response, biochemical, Z'-LYTE, FRET readout, direct format (AID 1671282)
Conditions: Z'-LYTE FRET kinase assay, recombinant FYN

Chain of Tyrosine-protein kinase Fyn (Homo sapiens) (P06241 whole entry, looked up): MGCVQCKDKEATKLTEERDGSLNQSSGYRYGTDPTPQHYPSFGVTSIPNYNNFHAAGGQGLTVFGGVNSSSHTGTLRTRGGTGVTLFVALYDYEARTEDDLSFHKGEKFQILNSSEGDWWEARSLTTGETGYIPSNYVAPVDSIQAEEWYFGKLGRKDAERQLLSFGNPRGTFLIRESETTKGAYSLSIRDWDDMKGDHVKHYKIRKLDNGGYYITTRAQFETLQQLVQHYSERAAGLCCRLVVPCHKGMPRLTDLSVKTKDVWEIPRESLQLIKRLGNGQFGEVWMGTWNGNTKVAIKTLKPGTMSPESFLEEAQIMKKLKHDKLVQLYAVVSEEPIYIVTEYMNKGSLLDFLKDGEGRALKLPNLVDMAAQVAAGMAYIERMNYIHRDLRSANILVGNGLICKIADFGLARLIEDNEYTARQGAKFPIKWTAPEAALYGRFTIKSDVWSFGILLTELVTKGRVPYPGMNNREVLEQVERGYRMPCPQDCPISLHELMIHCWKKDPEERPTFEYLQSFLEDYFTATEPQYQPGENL

Compound: COc1cc2ncnc(Nc3cccc(Cl)c3)c2cc1OC
- IC50: 8.78 µM
